Experimental findings from patent US20240228572A1 (i2o Therapeutics, Inc., priority 2020, published 2024) are described below.

Molecules are shown by their SMILES. *1 amine or outer side, *2 acyl side, *3 side chain or, on linkers, in order; H or OH if unused. Where a SMILES comes first, the peptide text is derived from it. Bridges are numbered along the chain shown (N, C = ends). Side-chain parts run from the residue outwards. [ ]: non-standard residue; d: D form. The star is where a group is joined. C20 diacid = O=C(O)CCCCCCCCCCCCCCCCCCC(=O)*; γGlu = O=C(O)[C@H](CCC(=O)[*:2])N[*:1]; AEEA = NCCOCCOCC(=O)O; Aib = CC(C)(N)C(=O)O

In assay [1] the target is T1, human Glucagon receptor (GCGR) (Homo sapiens, UniProt P47871).
T1 construct: A cDNA fragment encoding the full-length open reading frame of the human GCGR; expressed in transfected cells; host or cells: CHO-K1, pcDNA3.1+, Lipofectamine 2000
T1 sequence (P47871 26-477): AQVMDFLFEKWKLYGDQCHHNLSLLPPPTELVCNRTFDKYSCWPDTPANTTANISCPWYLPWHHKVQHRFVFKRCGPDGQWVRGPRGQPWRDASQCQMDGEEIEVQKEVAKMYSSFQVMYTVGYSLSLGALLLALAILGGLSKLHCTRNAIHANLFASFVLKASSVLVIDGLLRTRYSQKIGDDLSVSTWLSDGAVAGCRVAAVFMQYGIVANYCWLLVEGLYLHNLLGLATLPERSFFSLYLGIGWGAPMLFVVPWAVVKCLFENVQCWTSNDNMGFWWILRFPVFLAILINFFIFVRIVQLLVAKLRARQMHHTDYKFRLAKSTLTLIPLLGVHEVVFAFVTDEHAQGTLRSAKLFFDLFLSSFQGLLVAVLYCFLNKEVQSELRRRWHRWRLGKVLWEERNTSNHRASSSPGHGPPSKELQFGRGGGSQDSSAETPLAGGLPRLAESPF
The assay is described as follows: cAMP accumulation assay, CHO-K1 cells expressing human GCGR. It is filed as cell-based. The note with it: mean pEC50, Table 10.

Assay [2] has as its target T2, human GLP-1 receptor (GLP-1R) (Homo sapiens, UniProt P43220).
T2 construct: expressed in transfected cells
The assay is described as follows: cAMP accumulation assay, CHO-K1 cells stably expressing human GLP-1R. It is filed as cell-based. To be noted: cAMP accumulation, mean pEC50, Table 10.

T2 sequence (P43220 24-463): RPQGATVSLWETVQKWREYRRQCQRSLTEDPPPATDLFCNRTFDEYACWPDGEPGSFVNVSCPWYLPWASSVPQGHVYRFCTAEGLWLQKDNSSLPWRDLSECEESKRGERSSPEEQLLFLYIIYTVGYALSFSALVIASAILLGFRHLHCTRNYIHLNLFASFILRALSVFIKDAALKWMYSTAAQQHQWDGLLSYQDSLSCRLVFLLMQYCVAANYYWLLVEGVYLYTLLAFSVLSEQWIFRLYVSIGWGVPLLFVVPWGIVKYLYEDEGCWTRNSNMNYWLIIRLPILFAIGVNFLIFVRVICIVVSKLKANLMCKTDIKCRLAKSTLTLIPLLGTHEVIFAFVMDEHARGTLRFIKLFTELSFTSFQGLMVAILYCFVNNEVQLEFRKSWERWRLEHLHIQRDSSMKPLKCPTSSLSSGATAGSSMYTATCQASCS

Consider `CC(C)C[C@H](NC(=O)[C@H](Cc1ccc(O)cc1)NC(=O)[C@H](CCCCN)NC(=O)[C@H](CO)NC(=O)[C@H](Cc1ccc(O)cc1)NC(=O)[C@H](CC(=O)O)NC(=O)[C@H](CO)NC(=O)[C@@H](NC(=O)[C@H](Cc1ccccc1)NC(=O)[C@@H](NC(=O)CNC(=O)[C@H](Cc1c[nH]cn1)NC(=O)[C@H](CO)NC(=O)[C@@H](N)Cc1ccc(O)cc1)[C@@H](C)O)[C@@H](C)O)C(=O)N[C@@H](CC(=O)O)C(=O)N[C@@H](CCCCNC(=O)CC[C@H](NC(=O)CC[C@H](NC(=O)COCCOCCNC(=O)CCCCCCCCCCCCCCCCCCC(=O)O)C(=O)O)C(=O)O)C(=O)N[C@@H](CCCCN)C(=O)N[C@@H](Cc1ccc(O)cc1)C(=O)N[C@@H](C)C(=O)N[C@H]1CCC(=O)NCCCC[C@@H](C(=O)N[C@@H](Cc2c[nH]c3ccccc23)C(=O)N[C@@H](CC(C)C)C(=O)N[C@@H](CCC(=O)O)C(=O)N[C@@H](CC(=O)O)C(=O)N[C@@H](CCC(=O)O)C(=O)N2CCC[C@H]2C(=O)N[C@@H](CO)C(=O)N[C@@H](CO)C(=O)NCC(=O)N[C@@H](CCCCN)C(=O)N2CCC[C@H]2C(=O)N2CCC[C@H]2C(=O)N2CCC[C@H]2C(=O)N[C@@H](CO)C(=O)O)NC(=O)[C@H](C(C)C)NC(=O)[C@H](Cc2ccccc2)NC(=O)[C@H](CCCCN)NC1=O` [Compound A32] (H-YSHGTFTSDYSKYLDK([γGlu-γGlu-AEEA-C20 diacid])KYAEKFVKWLEDEPSSGKPPPS-OH; lactam 20-24; N-terminus assumed), for which the EC50 in assay [1] was 2 pM; in assay [2], greater than 1000 pM.
`CC(C)C[C@H](NC(=O)[C@H](Cc1ccc(O)cc1)NC(=O)[C@H](CCCCN)NC(=O)[C@H](CO)NC(=O)[C@H](Cc1ccc(O)cc1)NC(=O)[C@H](CC(=O)O)NC(=O)[C@H](CO)NC(=O)[C@@H](NC(=O)[C@H](Cc1ccccc1)NC(=O)[C@@H](NC(=O)CNC(=O)[C@H](Cc1c[nH]cn1)NC(=O)[C@H](CO)NC(=O)[C@@H](N)Cc1ccc(O)cc1)[C@@H](C)O)[C@@H](C)O)C(=O)N[C@@H](CC(=O)O)C(=O)N[C@@H](CCCCNC(=O)CC[C@H](NC(=O)CC[C@H](NC(=O)COCCOCCNC(=O)CCCCCCCCCCCCCCCCCCC(=O)O)C(=O)O)C(=O)O)C(=O)N[C@@H](CCCCN)C(=O)N[C@@H](Cc1ccc(O)cc1)C(=O)N[C@@H](C)C(=O)N[C@@H](CCCCN)C(=O)N[C@@H](CCC(=O)O)C(=O)N[C@@H](Cc1ccccc1)C(=O)N[C@H](C(=O)NC(C)(C)C(=O)N[C@@H](Cc1c[nH]c2ccccc12)C(=O)N[C@@H](CC(C)C)C(=O)N[C@@H](CCC(=O)O)C(=O)N[C@@H](CO)C(=O)N[C@@H](CCC(=O)O)C(=O)N1CCC[C@H]1C(=O)N[C@@H](CO)C(=O)N[C@@H](CO)C(=O)NCC(=O)N[C@@H](C)C(=O)N1CCC[C@H]1C(=O)N1CCC[C@H]1C(=O)N1CCC[C@H]1C(=O)N[C@@H](CO)C(=O)O)C(C)C` [Compound A22] (H-YSHGTFTSDYSKYLDK([γGlu-γGlu-AEEA-C20 diacid])KYAKEFV[Aib]WLESEPSSGAPPPS-OH; N-terminus assumed): the figures for the EC50 in assay [1] and in assay [2] were 2 pM and greater than 1000 pM, respectively.
Turning to `CC(C)C[C@H](NC(=O)[C@H](Cc1ccc(O)cc1)NC(=O)[C@H](CCCCN)NC(=O)[C@H](CO)NC(=O)[C@H](Cc1ccc(O)cc1)NC(=O)[C@H](CC(=O)O)NC(=O)[C@H](CO)NC(=O)[C@@H](NC(=O)[C@H](Cc1ccccc1)NC(=O)[C@@H](NC(=O)CNC(=O)[C@H](Cc1c[nH]cn1)NC(=O)[C@H](CO)NC(=O)[C@@H](N)Cc1ccc(O)cc1)[C@@H](C)O)[C@@H](C)O)C(=O)N[C@@H](CC(=O)O)C(=O)N[C@@H](CCCCNC(=O)CC[C@H](NC(=O)CC[C@H](NC(=O)COCCOCCNC(=O)CCCCCCCCCCCCCCCCCCC(=O)O)C(=O)O)C(=O)O)C(=O)N[C@@H](CCCCN)C(=O)N[C@@H](Cc1ccc(O)cc1)C(=O)N[C@@H](C)C(=O)N[C@H]1CCC(=O)NCCCC[C@@H](C(=O)N[C@@H](Cc2c[nH]c3ccccc23)C(=O)N[C@@H](CC(C)C)C(=O)N[C@@H](CCC(=O)O)C(=O)N[C@@H](CCC(=O)O)C(=O)N[C@@H](CCC(=O)O)C(=O)N2CCC[C@H]2C(=O)N[C@@H](CO)C(=O)N[C@@H](CO)C(=O)NCC(=O)N[C@@H](C)C(=O)N2CCC[C@H]2C(=O)N2CCC[C@H]2C(=O)N2CCC[C@H]2C(=O)N[C@@H](CO)C(=O)O)NC(=O)[C@H](C(C)C)NC(=O)[C@H](Cc2ccccc2)NC(=O)[C@H](CCCCN)NC1=O` [Compound A25] (H-YSHGTFTSDYSKYLDK([γGlu-γGlu-AEEA-C20 diacid])KYAEKFVKWLEEEPSSGAPPPS-OH; lactam 20-24), the EC50 in assay [1] is 1.26 pM; in assay [2], greater than 1000 pM.
On to `CC(C)C[C@H](NC(=O)[C@H](Cc1ccc(O)cc1)NC(=O)[C@H](CCCCN)NC(=O)[C@H](CO)NC(=O)[C@H](Cc1ccc(O)cc1)NC(=O)[C@H](CC(=O)O)NC(=O)[C@H](CO)NC(=O)[C@@H](NC(=O)[C@H](Cc1ccccc1)NC(=O)[C@@H](NC(=O)CNC(=O)[C@H](Cc1c[nH]cn1)NC(=O)[C@H](CO)NC(=O)[C@@H](N)Cc1ccc(O)cc1)[C@@H](C)O)[C@@H](C)O)C(=O)N[C@@H](CC(=O)O)C(=O)N[C@@H](CCCCNC(=O)CC[C@H](NC(=O)CC[C@H](NC(=O)CCCCCCCCCCCCCCCCCCC(=O)O)C(=O)O)C(=O)O)C(=O)N[C@@H](CCCCN)C(=O)N[C@@H](Cc1ccc(O)cc1)C(=O)N[C@@H](C)C(=O)N[C@@H](CCC(N)=O)C(=O)N[C@@H](CCC(=O)O)C(=O)N[C@@H](Cc1ccccc1)C(=O)N[C@H](C(=O)NC(C)(C)C(=O)N[C@@H](Cc1c[nH]c2ccccc12)C(=O)N[C@@H](CC(C)C)C(=O)N[C@@H](CCC(=O)O)C(=O)N[C@@H](CC(=O)O)C(=O)N[C@@H](CCC(=O)O)C(=O)N1CCC[C@H]1C(=O)N[C@@H](CO)C(=O)N[C@@H](CO)C(=O)NCC(=O)N[C@@H](C)C(=O)N1CCC[C@H]1C(=O)N1CCC[C@H]1C(=O)N1CCC[C@H]1C(=O)N[C@@H](CO)C(=O)O)C(C)C` [Compound A13] (H-YSHGTFTSDYSKYLDK([γGlu-γGlu-C20 diacid])KYAQEFV[Aib]WLEDEPSSGAPPPS-OH), for which the EC50 is 1 pM in assay [1] and greater than 1000 pM in assay [2].
In the same order, the values of `CC(C)C[C@H](NC(=O)[C@H](Cc1ccc(O)cc1)NC(=O)[C@H](CCCCN)NC(=O)[C@H](CO)NC(=O)[C@H](Cc1ccc(O)cc1)NC(=O)[C@H](CC(=O)O)NC(=O)[C@H](CO)NC(=O)[C@@H](NC(=O)[C@H](Cc1ccccc1)NC(=O)[C@@H](NC(=O)CNC(=O)[C@H](Cc1c[nH]cn1)NC(=O)[C@H](CO)NC(=O)[C@@H](N)Cc1ccc(O)cc1)[C@@H](C)O)[C@@H](C)O)C(=O)N[C@@H](CC(=O)O)C(=O)NC(C)(C)C(=O)N[C@@H](CCCCN)C(=O)N[C@@H](Cc1ccc(O)cc1)C(=O)N[C@@H](C)C(=O)N[C@@H](CCC(N)=O)C(=O)N[C@@H](CCCCNC(=O)CC[C@H](NC(=O)CC[C@H](NC(=O)CCCCCCCCCCCCCCCCCCC(=O)O)C(=O)O)C(=O)O)C(=O)N[C@@H](Cc1ccccc1)C(=O)N[C@H](C(=O)NC(C)(C)C(=O)N[C@@H](Cc1c[nH]c2ccccc12)C(=O)N[C@@H](CC(C)C)C(=O)N[C@@H](CCC(=O)O)C(=O)N[C@@H](CC(=O)O)C(=O)N[C@@H](CCC(=O)O)C(=O)N1CCC[C@H]1C(=O)N[C@@H](CO)C(=O)N[C@@H](CO)C(=O)NCC(=O)N[C@@H](C)C(=O)N1CCC[C@H]1C(=O)N1CCC[C@H]1C(=O)N1CCC[C@H]1C(=O)N[C@@H](CO)C(=O)O)C(C)C` [Compound A14] (H-YSHGTFTSDYSKYLD[Aib]KYAQK([γGlu-γGlu-C20 diacid])FV[Aib]WLEDEPSSGAPPPS-OH; N-terminus assumed) are 6.31 pM and greater than 1000 pM.
The matching figures for `CC(C)C[C@H](NC(=O)[C@H](Cc1ccc(O)cc1)NC(=O)[C@H](CCCCN)NC(=O)[C@H](CO)NC(=O)[C@H](Cc1ccc(O)cc1)NC(=O)[C@H](CC(=O)O)NC(=O)[C@H](CO)NC(=O)[C@@H](NC(=O)[C@H](Cc1ccccc1)NC(=O)[C@@H](NC(=O)CNC(=O)[C@H](Cc1c[nH]cn1)NC(=O)[C@H](CO)NC(=O)[C@@H](N)Cc1ccc(O)cc1)[C@@H](C)O)[C@@H](C)O)C(=O)N[C@@H](CC(=O)O)C(=O)N[C@@H](CCCCNC(=O)CC[C@H](NC(=O)CC[C@H](NC(=O)COCCOCCNC(=O)CCCCCCCCCCCCCCCCCCC(=O)O)C(=O)O)C(=O)O)C(=O)N[C@@H](CCCCN)C(=O)N[C@@H](Cc1ccc(O)cc1)C(=O)N[C@@H](C)C(=O)N[C@H]1CCC(=O)NCCCC[C@@H](C(=O)N[C@@H](Cc2c[nH]c3ccccc23)C(=O)N[C@@H](CC(C)C)C(=O)N[C@@H](CCC(=O)O)C(=O)N[C@@H](CC(N)=O)C(=O)N[C@@H](CCC(=O)O)C(=O)N2CCC[C@H]2C(=O)N[C@@H](CO)C(=O)N[C@@H](CO)C(=O)NCC(=O)N[C@@H](C)C(=O)N2CCC[C@H]2C(=O)N2CCC[C@H]2C(=O)N2CCC[C@H]2C(=O)N[C@@H](CO)C(=O)O)NC(=O)[C@H](C(C)C)NC(=O)[C@H](Cc2ccccc2)NC(=O)[C@H](CCCCN)NC1=O` [Compound A27] (H-YSHGTFTSDYSKYLDK([γGlu-γGlu-AEEA-C20 diacid])KYAEKFVKWLENEPSSGAPPPS-OH; lactam 20-24; N-terminus assumed): 1 pM and greater than 1000 pM.
